Experimental data: patent US8129371B2, “Thienopyrimidine and pyrazolopyrimidine compounds and their use as mTOR kinase and PI3 kinase inhibitors” (Wyeth LLC, priority 2007, dated 2012)
Like-named read-outs stand apart in the source and are kept apart here.

Columns and labels:
breast line MDA468 = test: In vitro cell culture growth assay (MTS), MDA468; assay type: cell-based; conditions: Homo sapiens, 72 h, MDA468 cells, three days after drug treatment
Protocol: (§1) Human tumor cell lines used include prostate lines LNCap and PC3MM2, breast lines MDA468, MCF7, renal line HTB44 (A498), colon line HCT116, and ovarian line OVCAR3. Cells were plated in 96-well culture plates. One day following plating, the inhibitors were added to cells. Three days after drug treatment, viable cell densities were determined by metabolic conversion (by viable cells) of the dye MTS, a well-established cell proliferation assay. The assays were performed using an assay kit purchased from Promega Corp. (Madison, Wis.) following the protocol supplied with the kit. The MTS assay results were read in a 96-well plate reader by measuring absorbance at 490 nm. The effect of each treatment was calculated as percent of control growth relative to the vehicle-treated cells grown in the same culture plate.

Human mTOR (FLAG-TOR) = biological target: T1, Human mTOR (FLAG-TOR) (Homo sapiens, UniProt P42345); test: Human mTOR kinase assay with purified enzyme, DELFIA format; assay type: biochemical
T1 construct: FLAG
Protocol: Enzymes are first diluted in kinase assay buffer (10 mM HEPES (pH 7.4), 50 mM NaCl, 50 mM β-glycerophosphate, 10 mM MnCl2, 0.5 mM DTT, 0.25 mM microcystin LR, and 100 mg/mL BSA). To each well, 12 μL of the diluted enzyme is mixed briefly with 0.5 μL test inhibitor or control vehicle dimethylsulfoxide (DMSO). […] The reaction plate is incubated for 2 hours (linear at 1-6 hours) at room temperature with gentle shaking and then terminated by adding 25 μL Stop buffer (20 mM HEPES (pH 7.4), 20 mM EDTA, 20 mM EGTA). […] The DELFIA Assay buffer and Enhancement solution can be purchased from PerkinElmer. 45 μL of the terminated kinase reaction mixture is transferred to a MaxiSorp plate (Nunc) containing 55 μL PBS. The His6-S6K is allowed to attach for 2 hours after which the wells are aspirated and washed once with PBS. 100 μL of DELFIA Assay buffer with 40 ng/mL Eu—P(T389)-S6K antibody is added. The antibody binding is continued for 1 hour with gentle agitation. The wells are then aspirated and washed 4 times with PBS containing 0.05% Tween-20 (PBST). 100 μL of DELFIA Enhancement solution is added to each well and the plates are read in a PerkinElmer Victor model plate reader. Data obtained is used to calculate enzymatic activity and enzyme inhibition by potential inhibitors.

prostate line LNCap = test: In vitro cell culture growth assay (MTS), LNCap; assay type: cell-based; conditions: Homo sapiens, LNCaP, 72 h, LNCap cells, three days after drug treatment
Protocol: as §1

PI3K [1] = biological target: T2, PI3K (Homo sapiens, UniProt P42336); test: Fluorescence polarization assay for PI3K; assay type: biochemical; conditions: read-out: PI3 Kinase α IC50
T2 construct: PI3 Kinase α IC50; other: PI3 Kinase α; other: PI3 Kinase α isoform, fluorescence polarization
Protocol: (§2) This assay is used to determine the IC50 of compounds of the present invention as it identifies inhibitors of PI3 kinase by measuring inhibition.
(§3) The assay is run by placing 5 μL of diluted enzyme per well, then 5 μL of diluted compound (or 9.5 μL enzyme then 0.5 μL compound in DMSO) is added and mixed. Then, 10 μL substrate is added to start the reaction. The samples are incubated 30-60 minutes, then the reaction is stopped by adding 20 μL stop/detector mix. PI3K is diluted with reaction buffer (e.g., 5 μL or 7.5 μL PI3K into 620 μL reaction buffer), and 5 μL of diluted enzyme is used per well. 5 μL reaction buffer or drug diluted in buffer (e.g., 4 μL/100 so final DMSO is 1% in reaction) is added to each. Pipetting up and down mixes the samples. Alternatively, the enzyme can be diluted to 1215 μL. In this case 9.8 μL is added per well and 0.2 μL compound is added in DMSO. To prepare 1 mL of substrate solution, 955 μL reaction buffer, 40 μL PIP2, and 2.5 μL ATP are mixed. 10 μL of substrate is added to each well to start the reaction.
(§4) Stop/detector mix is prepared by mixing 4 μL Red detector and 1.6 μL or 2.0 μL GST-GRP with 1 mL Stop buffer, which results in 10 nM probe and 70 nM GST-GRP). 20 μL of the stop/detector mix is added to each well to stop the reaction. The plates are read after 30-90 minutes keeping the red probe solutions dark. For the zero time point, stop/detector mix is added to the enzyme just before adding substrate. For an extra control, stop/detector mix is added to buffer (no enzyme) and substrate or to just buffer (no substrate). […] Plates are read on machines with filters for Tamra. The units are mP with no enzyme controls reading app 190-220 mP units. Fully active enzyme reduces fluorescence polarization down to 70-100 mP after 30 minutes.

PI3K [2] = biological target: T3, PI3K (Homo sapiens, UniProt P48736); test: Fluorescence polarization assay for PI3K; assay type: biochemical; conditions: read-out: PI3 Kinase γ IC50
T3 construct: PI3 Kinase γ IC50; other: PI3 Kinase γ; other: PI3 Kinase γ isoform, fluorescence polarization
Protocol: as §2, §3, §4

[3] = purified human mTOR enzyme, DELFIA format
[4] = PI3 Kinase α isoform, fluorescence polarization
[5] = PI3 Kinase γ isoform, fluorescence polarization

T2 sequence (P42336 whole entry, canonical isoform): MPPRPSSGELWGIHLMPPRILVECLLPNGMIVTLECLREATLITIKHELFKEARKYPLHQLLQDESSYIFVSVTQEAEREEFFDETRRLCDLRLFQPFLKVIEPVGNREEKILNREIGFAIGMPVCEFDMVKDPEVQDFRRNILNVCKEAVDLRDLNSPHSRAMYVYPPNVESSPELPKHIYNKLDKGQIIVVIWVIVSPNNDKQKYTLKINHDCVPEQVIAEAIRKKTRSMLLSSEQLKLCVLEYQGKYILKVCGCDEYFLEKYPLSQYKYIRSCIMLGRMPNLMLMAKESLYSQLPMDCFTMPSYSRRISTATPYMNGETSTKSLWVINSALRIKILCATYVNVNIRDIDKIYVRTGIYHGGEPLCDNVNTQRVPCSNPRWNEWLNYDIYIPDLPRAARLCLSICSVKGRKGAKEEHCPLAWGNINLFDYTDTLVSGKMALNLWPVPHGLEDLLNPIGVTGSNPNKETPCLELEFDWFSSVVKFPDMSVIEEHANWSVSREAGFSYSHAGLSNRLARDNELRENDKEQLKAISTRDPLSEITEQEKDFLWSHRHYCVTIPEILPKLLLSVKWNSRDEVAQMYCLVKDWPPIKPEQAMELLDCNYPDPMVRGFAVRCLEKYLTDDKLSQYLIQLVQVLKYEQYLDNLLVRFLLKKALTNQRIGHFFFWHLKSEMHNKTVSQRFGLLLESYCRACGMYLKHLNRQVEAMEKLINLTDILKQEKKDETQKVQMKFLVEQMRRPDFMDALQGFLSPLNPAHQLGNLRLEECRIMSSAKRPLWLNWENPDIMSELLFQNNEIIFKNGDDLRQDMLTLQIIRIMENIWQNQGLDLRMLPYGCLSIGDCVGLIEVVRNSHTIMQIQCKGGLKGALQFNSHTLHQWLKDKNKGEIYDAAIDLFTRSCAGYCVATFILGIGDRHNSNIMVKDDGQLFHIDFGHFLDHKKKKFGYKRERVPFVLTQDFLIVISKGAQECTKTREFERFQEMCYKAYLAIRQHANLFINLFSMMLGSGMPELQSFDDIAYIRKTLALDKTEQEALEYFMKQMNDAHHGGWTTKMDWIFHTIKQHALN
T3 sequence (P48736 whole entry, canonical isoform): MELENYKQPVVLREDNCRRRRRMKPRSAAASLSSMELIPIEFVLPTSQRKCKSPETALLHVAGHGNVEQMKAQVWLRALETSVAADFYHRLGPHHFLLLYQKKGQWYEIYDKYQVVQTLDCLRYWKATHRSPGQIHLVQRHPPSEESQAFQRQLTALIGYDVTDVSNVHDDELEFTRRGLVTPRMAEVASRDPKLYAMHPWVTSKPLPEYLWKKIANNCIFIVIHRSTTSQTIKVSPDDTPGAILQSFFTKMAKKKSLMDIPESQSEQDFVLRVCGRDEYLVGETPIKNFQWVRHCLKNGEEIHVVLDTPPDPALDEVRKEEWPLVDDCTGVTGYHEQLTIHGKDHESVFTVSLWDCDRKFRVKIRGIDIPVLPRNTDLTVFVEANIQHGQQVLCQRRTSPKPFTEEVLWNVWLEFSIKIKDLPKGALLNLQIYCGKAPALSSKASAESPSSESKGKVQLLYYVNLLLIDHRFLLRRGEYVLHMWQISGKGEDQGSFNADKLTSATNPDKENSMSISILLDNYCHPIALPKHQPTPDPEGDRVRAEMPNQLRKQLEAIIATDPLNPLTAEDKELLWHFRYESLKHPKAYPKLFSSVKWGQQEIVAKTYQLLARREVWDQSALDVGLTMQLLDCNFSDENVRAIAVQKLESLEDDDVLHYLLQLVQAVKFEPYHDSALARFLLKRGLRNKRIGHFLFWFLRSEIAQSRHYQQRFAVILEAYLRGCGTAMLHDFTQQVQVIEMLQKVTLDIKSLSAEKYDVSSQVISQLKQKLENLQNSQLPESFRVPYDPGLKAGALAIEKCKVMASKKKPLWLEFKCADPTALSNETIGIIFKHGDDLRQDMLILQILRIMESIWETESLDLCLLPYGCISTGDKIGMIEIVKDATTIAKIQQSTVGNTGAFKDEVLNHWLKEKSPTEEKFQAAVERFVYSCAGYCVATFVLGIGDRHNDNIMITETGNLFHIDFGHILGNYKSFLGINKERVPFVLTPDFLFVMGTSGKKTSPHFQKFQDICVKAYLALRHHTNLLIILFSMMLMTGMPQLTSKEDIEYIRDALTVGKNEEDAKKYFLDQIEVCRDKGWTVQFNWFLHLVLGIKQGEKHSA

| SMILES | IC50 (Human mTOR (FLAG-TOR)) [nM] | IC50 (prostate line LNCap) [nM] | IC50 (PI3K [1]; PI3 Kinase α) [nM] | IC50 (PI3K [2]; PI3 Kinase γ) [nM] | IC50 (Human mTOR (FLAG-TOR); [3]) [nM] | IC50 (PI3K [1]; [4]) [nM] | IC50 (PI3K [2]; [5]) [nM] | IC50 (breast line MDA468) [nM] |
| --- | --- | --- | --- | --- | --- | --- | --- | --- |
| CCn1ncc2c(N3CC4CCC(C3)O4)nc(-c3ccc(NC(=O)N[C@H]4CC[C@@H](N)CC4)cc3)nc21 (relative stereo) [Example 229, 1-(cis-4-aminocyclohexyl)-3-{4-[1-ethyl-4-(8-oxa-3-azabicyclo[3.2.1]oct-3-yl)-1H-pyrazolo[3,4-d]pyrimidin-6-yl]phenyl}urea] | 245 | 4900 | 2850 | > 10000 | – | – | – | 4000 |
| CCn1ncc2c(N3CC4CCC(C3)O4)nc(-c3ccc(NC(=O)N[C@H]4CC[C@H](N)CC4)cc3)nc21 (relative stereo) [Example 230, 1-(trans-4-aminocyclohexyl)-3-{4-[1-ethyl-4-(8-oxa-3-azabicyclo[3.2.1]oct-3-yl)-1H-pyrazolo[3,4-d]pyrimidin-6-yl]phenyl}urea] | 15.5 | 1300 | 2890 | > 10000 | – | – | – | 1500 |
| CNC(=O)Nc1ccc(-c2nc(N3CC4CCC(C3)O4)c3cnn([C@H]4CC[C@H](OC)CC4)c3n2)cc1 (relative stereo) [Example 386, 1-{4-[1-(trans-4-methoxycyclohexyl)-4-(8-oxa-3-azabicyclo[3.2.1]oct-3-yl)-1H-pyrazolo[3,4-d]pyrimidin-6-yl]phenyl}-3-methylurea] | – | 2 | – | – | 0.375 | 1170 | 7440 | 37 |
| CO[C@H]1CC[C@@H](n2ncc3c(N4CC5CCC(C4)O5)nc(-c4ccc(NC(=O)NC5CC5)cc4)nc32)CC1 (relative stereo) [Example 398, 1-cyclopropyl-3-{4-[1-(cis-4-methoxycyclohexyl)-4-(8-oxa-3-azabicyclo[3.2.1]oct-3-yl)-1H-pyrazolo[3,4-d]pyrimidin-6-yl]phenyl}urea] | – | 1 | – | – | 0.52 | 1150 | 5650 | 20 |
| CO[C@H]1CC[C@H](n2ncc3c(N4CC5CCC(C4)O5)nc(-c4ccc(NC(=O)NC5CC5)cc4)nc32)CC1 (relative stereo) [Example 399, 1-cyclopropyl-3-{4-[1-(trans-4-methoxycyclohexyl)-4-(8-oxa-3-azabicyclo[3.2.1]oct-3-yl)-1H-pyrazolo[3,4-d]pyrimidin-6-yl]phenyl}urea] | – | 1 | – | – | 0.52 | 1500 | 6600 | 41 |
| O=C(Nc1ccc(-c2nc(N3CC4CCC(C3)O4)c3cnn([C@H]4CC[C@@H](O)CC4)c3n2)cc1)NC1CC1 (relative stereo) [Example 402, 1-cyclopropyl-3-{4-[1-(cis-4-hydroxycyclohexyl)-4-(8-oxa-3-azabicyclo[3.2.1]oct-3-yl)-1H-pyrazolo[3,4-d]pyrimidin-6-yl]phenyl}urea] | – | 2 | – | – | 0.41 | 2970 | > 10000 | 40 |
| COC(=O)N1CCC(n2ncc3c(N4CC5CCC(C4)O5)nc(-c4ccc(NC(=O)NC5CC5)cc4)nc32)CC1 [Example 12, methyl 4-[6-{4-[(cyclopropylcarbamoyl)amino]phenyl}-4-(8-oxa-3-azabicyclo[3.2.1]oct-3-yl)-1H-pyrazolo[3,4-d]pyrimidin-1-yl]piperidine-1-carboxylate] | 0.52 | 23 | – | > 10000 | – | – | – | 300 |
| Nc1ccc(-c2nc(N3CC4CCC(C3)O4)c3cnn(CC(F)(F)F)c3n2)cc1 [Example 374, 4-[4-(8-oxa-3-azabicyclo[3.2.1]oct-3-yl)-1-(2,2,2-trifluoroethyl)-1H-pyrazolo[3,4-d]pyrimidin-6-yl]aniline] | – | 1000 | – | – | 57 | – | – | 5500 |
| CNC(=O)Nc1ccc(-c2nc(N3C4COCC3C(O)C4)c3cnn(CC(F)(F)F)c3n2)cc1 (stereo not shown) [Example 390, 1-{4-[4-(6-hydroxy-3-oxa-8-azabicyclo[3.2.1]oct-8-yl)-1-(2,2,2-trifluoroethyl)-1H-pyrazolo[3,4-d]pyrimidin-6-yl]phenyl}-3-methylurea] | – | 12000 | – | – | 540 | – | – | 10000 |

Continued, in another order:

| IC50 (Human mTOR (FLAG-TOR)) [nM] | IC50 (prostate line LNCap) [nM] | IC50 (PI3K [1]; PI3 Kinase α) [nM] | IC50 (PI3K [2]; PI3 Kinase γ) [nM] | IC50 (Human mTOR (FLAG-TOR); [3]) [nM] | IC50 (PI3K [1]; [4]) [nM] | IC50 (PI3K [2]; [5]) [nM] | SMILES | IC50 (breast line MDA468) [nM] |
| --- | --- | --- | --- | --- | --- | --- | --- | --- |
| – | 20 | – | – | 0.245 | 882 | > 10000 | CNC(=O)Nc1ccc(-c2nc(N3CC4CCC(C3)O4)c3cnn([C@H]4CC[C@H](O)CC4)c3n2)cc1 (relative stereo) [Example 380, 1-{4-[1-(trans-4-hydroxycyclohexyl)-4-(8-oxa-3-azabicyclo[3.2.1]oct-3-yl)-1H-pyrazolo[3,4-d]pyrimidin-6-yl]phenyl}-3-methylurea] | 70 |
| – | 20 | – | – | 0.3 | 227 | > 10000 | CNC(=O)Nc1ccc(-c2nc(N3CC4CCC(C3)O4)c3cnn([C@H]4CC[C@@H](O)CC4)c3n2)cc1 (relative stereo) [Example 381, 1-{4-[1-(cis-4-hydroxycyclohexyl)-4-(8-oxa-3-azabicyclo[3.2.1]oct-3-yl)-1H-pyrazolo[3,4-d]pyrimidin-6-yl]phenyl}-3-methylurea] | 51 |
| – | 1 | – | – | 0.33 | 705 | 404 | CNC(=O)Nc1ccc(-c2nc(N3CC4CCC(C3)O4)c3cnn([C@H]4CC[C@@H](OC)CC4)c3n2)cc1 (relative stereo) [Example 387, 1-{4-[1-(cis-4-methoxycyclohexyl)-4-(8-oxa-3-azabicyclo[3.2.1]oct-3-yl)-1H-pyrazolo[3,4-d]pyrimidin-6-yl]phenyl}-3-methylurea] | 19 |
| – | < 1 | – | – | 0.335 | 145 | 1790 | CO[C@H]1CC[C@H](n2ncc3c(N4CC5CCC(C4)O5)nc(-c4ccc(NC(=O)Nc5ccc(N6CCN(C)CC6)cc5)cc4)nc32)CC1 (relative stereo) [Example 396, 1-{4-[1-(trans-4-methoxycyclohexyl)-4-(8-oxa-3-azabicyclo[3.2.1]oct-3-yl)-1H-pyrazolo[3,4-d]pyrimidin-6-yl]phenyl}-3-[4-(4-methylpiperazin-1-yl)phenyl]urea] | 4 |
| – | – | – | – | 0.56 | 12 | 286 | CS(=O)(=O)N1CCN(Cc2cc3nc(-c4ccc(NC(=O)Nc5cccnc5)cc4)nc(N4CC5CCC(C4)O5)c3s2)CC1 [Example 433, 1-{4-[6-{[4-(methylsulfonyl)piperazin-1-yl]methyl}-4-(8-oxa-3-azabicyclo[3.2.1]oct-3-yl)thieno[3,2-d]pyrimidin-2-yl]phenyl}-3-pyridin-3-ylurea] | 60 |
